Results: patent US20230054194A1, “Methods of Treating Cancer” (ARIAGEN, INC., priority 2018, published 2023)

How the values were obtained:
B16F10 = B16F10 subcutaneous syngeneic melanoma mouse model (Study 10), tumor growth inhibition; assay type: in vivo, mouse (C57BL/6); settings: for Tumor size / TGI(%): B16F10 model, study end day Day 19; for Tumor size: Mean ± SEM, in mm³
Procedure: (§1) In this example, the in vivo anti-tumor efficacy of ARI-001, ARI-002, ARI-003, and ARI-143 and their combinations with an anti-PD-1 antibody was evaluated using a panel of twelve subcutaneous syngeneic mouse tumor models.
(§2) Eleven subcutaneous syngeneic mouse tumor models were generated by innoculating female BALB/C or C57BL/6 mice with cancer cells at their right lower or right front flank followed by randomization as detailed in Table 4 below.
(§3) A solution of a rat monoclonal anti-mouse PD-1 antibody (isotype IgG2a, κ) at a concentration of 6.61 mg/ml was obtained from BioXcell (InVivoMAb anti-mouse PD-1 (CD279), Clone RMP1-14, Cat #BE0146)) and store at 4° C. The antibody solution was diluted with PBS to obtain a 1 mg/ml dosing solution.
(§4) ARI-001, ARI-002, and ARI-003 powder was stored at −20° C. The powder of each compound was dissolved in DMSO to obtain dosing solutions at 106.7, 80, and 53.33 mg/ml for administration to mice at 160, 120, and 80 mg/kg, respectively. ARI-143 was similarly prepared.
(§5) Twelve studies using the twelve subcutaneous syngeneic mouse tumor models were performed. In each study, 80 mice were enrolled and randomly allocated to eight different study groups, with 10 mice in each study group. The mean tumor size at randomization was approximately 80-120 mm^3 (around 100 mm^3). Randomization was performed based on “Matched distribution” randomization method (StudyDirector™ software, version 3.1.399.19). […] All the drugs and vehicle controls were injected to the mice intraperitoneally.
(§6) After tumor cell inoculation, the animals were checked daily for morbidity and mortality. At the time of routine monitoring, the animals were checked for any effects of tumor growth and treatments on behavior such as mobility, food and water consumption, body weight gain/loss (body weights were measured twice or three times per week after randomization), and any other abnormalities. Mortality and observed clinical signs were recorded for individual animals. Tumor volumes were measured twice or three times weekly after randomization in two dimensions using a caliper, and the volume was expressed in mm^3 using the formula: […]
(§7) where V is tumor volume, L is tumor length (the longest tumor dimension) and W is tumor width (the longest tumor dimension perpendicular to L).
(§8) The study was terminated when the mean tumor volume (MTV) in the vehicle group reached a value of 2,000 mm^3. Tumor growth inhibition (TGI) is an indication of antitumor activity, and expressed as: […]
(§9) where T and C are the MTV (or weight) of the treated and control groups, respectively, on a given day. Statistical analysis of the difference in MTV among the groups was conducted using the data collected on the day when the MTV of the vehicle group reached the humane endpoints, so that TGI could be derived for all or most mice enrolled in the study.
(§10) Statistical analysis of differences in MTV among the groups was conducted by Independent-Samples T Test using the data collected. All data were analyzed with SPSS (Statistical Product and Service Solutions) version 18.0 (IBM, Armonk, N.Y., U.S.). P-values were rounded to three decimal places, with the exception that raw P-values less than 0.001 were stated as P<0.001. All tests were two-sided. P<0.05 was considered to be statistically significant.
FIG. 69 is a graph showing the mean tumor volume on different study days in the study groups as indicated according to Study 10 (B16F10). The study end day was Day 19.

RM-1 = RM-1 subcutaneous syngeneic prostate cancer mouse model (Study 7), tumor growth inhibition; assay type: in vivo, mouse (C57BL/6); settings: for Tumor size / TGI(%): RM-1 model, study end day Day 19; for Tumor size: Mean ± SEM, in mm³
Procedure: as §1, §2, §3, §4, §5, §6, §7, §8, §9, §10
FIG. 66 is a graph showing the mean tumor volume on different study days in the study groups as indicated according to Study 7 (RM-1). The study end day was Day 19.

H22 = H22 subcutaneous syngeneic liver cancer mouse model (Study 11), tumor growth inhibition; assay type: in vivo, mouse (BALB/C); settings: for Tumor size / TGI(%): H22 model, study end day Day 18; for Tumor size: Mean ± SEM, in mm³
Procedure: as §1, §2, §3, §4, §5, §6, §7, §8, §9, §10
FIG. 70 is a graph showing the mean tumor volume on different study days in the study groups as indicated according to Study 11 (H22). The study end day was Day 18.

[1] = RM-1 syngeneic prostate cancer model

Compound | Tumor size (B16F10) | TGI(%) (B16F10) | Tumor size (RM-1) | TGI(%) (RM-1) | anti-tumor potency of anti-PD-1 antibody combined with the compound, compared to the antibody alone (RM-1; [1]) | anti-tumor potency of the compound combined with anti-PD-1 antibody, compared to being used alone (RM-1; [1]) | Tumor size (H22) | TGI(%) (H22) | anti-tumor potency of anti-PD-1 antibody combined with the compound, compared to the antibody alone or the vehicle (B16F10; B16F10 syngeneic melanoma model) | anti-tumor potency of the compound combined with anti-PD-1 antibody, compared to being used alone (H22; H22 syngeneic liver cancer model)
COC(=O)c1csc(C(=O)c2c[nH]c3ccccc23)n1 [ARI-001] | 2089.97 ± 201.33 | 29 | 1732.55 ± 162.92 | 41 | statistically significant increase | statistically significant increase | 1139.95 ± 207.21 | 50 | – | –
CCC(=O)c1csc(C(=O)c2c[nH]c3ccccc23)n1 [ARI-002] | 1994.41 ± 180.33 | 32 | 1744.11 ± 144.25 | 41 | statistically significant increase | – | 1261.07 ± 203.55 | 44 | statistically significant increase | statistically significant increase
